Values after ≈ are worked out from the molar mass of the structure shown. Values joined by “and” are separate entries in the source; they are usually repeats but may differ in a detail not shown here. Identical values can stand only once. Non-standard residues stand in square brackets, D forms with d. Residues, ends and D or L forms follow the SMILES beside them. *: point of attachment. Leu(ol) = CC(C)C[C@H](N)CO; Octanoyl = CCCCCCCC(=O)*; Aib = CC(C)(N)C(=O)O
Key:
Escherichia coli CCUGT = settings: MHB, 5 × 10^5 CFU/mL, 18 h, 35 °C, triplicate
Outline: (§1)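 Broth microdilution in Mueller–Hinton broth, run in triplicate, inoculum 5 × 10^5 CFU/mL per CLSI M07-A10; MIC and MBC both determined. Peptides dissolved in DMSO at 25 mg/mL as stock.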

[1] = test system: Enterococcus faecalis ATCC 29212; settings: MHB, 5 × 10^5 CFU/mL, 18 h, 35 °C, triplicate
Outline: as §1

[2] = test system: Klebsiella pneumoniae ATCC 13833; settings: MHB, 5 × 10^5 CFU/mL, 18 h, 35 °C, triplicate
Outline: as §1

[3] = test system: Acinetobacter baumannii ATCC 17978; settings: for MBC Aba / MIC Aba: MHB, 5 × 10^5 CFU/mL, 18 h, 35 °C, triplicate; for MIC against A. baumannii, in molar units: corresponding to 2 and 8 μg/mL
Outline: as §1

[4] = test system: Bacillus subtilis ATCC 6633; settings: MHB, 5 × 10^5 CFU/mL, 18 h, 35 °C, triplicate
Outline: as §1

[5] = test system: Staphylococcus aureus ATCC 25923; settings: MHB, 5 × 10^5 CFU/mL, 18 h, 35 °C, triplicate
Outline: as §1

[6] = test system: Streptococcus pyogenes ATCC 12344; settings: MHB, 5 × 10^5 CFU/mL, 18 h, 35 °C, triplicate
Outline: as §1

[7] = test system: Pseudomonas aeruginosa ATCC 27853; settings: MHB, 5 × 10^5 CFU/mL, 18 h, 35 °C, triplicate
Outline: as §1

[8] = test system: reference Gram-positive and Gram-negative strains; settings: for lowest MIC: lowest value over the eight reference strains
Outline: as §1

[9] = test system: P. aeruginosa VA-182/00 (VIM-2); settings: MHB, 5 × 10^5 CFU/mL, 18 h, 35 °C, triplicate
Experimental: (§2) The minimum inhibitory concentration (MIC) and the minimum bactericidal concentration (MBC) of the compounds were determined in triplicate using Mueller–Hinton broth (MHB). […] Therefore, we decided to dissolve all peptides in DMSO to a final concentration of 25 mg/mL, for consistency. The bacteria inoculum was 5 × 10^5 CFU/mL, as recommended by CLSI (Document M07-A10, 2015). […] Reference-type strains, including representatives of both Gram-positive bacteria (Bacillus subtilis ATCC 6633, Enterococcus faecalis ATCC 29212, Staphylococcus aureus ATCC 25923, the methicillin-resistant Staphylococcus aureus ATCC 43300 (MRSA), Streptococcus pyogenes ATCC 12344) and Gram-negative bacteria (Escherichia coli CCUGT, Klebsiella pneumoniae ATCC 13833, Pseudomonas aeruginosa ATCC 27853, and Acinetobacter baumannii ATCC 17978), were acquired from ATCC or CCUG culture collections. Other antibiotic-resistant clinical isolates were present in our collection at the University Teaching Hospital (Azienda Ospedaliero-Universitaria Senese ‘Santa Maria alle Scotte’) in Siena, Tuscany, Italy. Specifically, MDR carbapenem-hydrolyzing class D β-lactamase-producing Acinetobacter baumannii and metallo-β-lactamase-producing Pseudomonas aeruginosa were used in this study (Table 4).

[10] = test system: P. aeruginosa VR-143/97 (VIM-1); settings: MHB, 5 × 10^5 CFU/mL, 18 h, 35 °C, triplicate
Experimental: as §2

[11] = test system: S. aureus ATCC 43300 (MRSA); settings: MHB, 5 × 10^5 CFU/mL, 18 h, 35 °C, triplicate
Experimental: as §2

[12] = test system: A. baumannii SI-310 (OXA-24); settings: colistin-resistant isolate; MHB, 5 × 10^5 CFU/mL, 18 h, 35 °C, triplicate
Experimental: as §2

[13] = test system: P. aeruginosa 101/1477 (IMP-1); settings: MHB, 5 × 10^5 CFU/mL, 18 h, 35 °C, triplicate
Experimental: as §2

[14] = test system: A. baumannii SI-648 (OXA-23, OXA-51-like); settings: MHB, 5 × 10^5 CFU/mL, 18 h, 35 °C, triplicate
Experimental: as §2

[15] = test system: A. baumannii SI-12 (OXA-23); settings: MHB, 5 × 10^5 CFU/mL, 18 h, 35 °C, triplicate
Experimental: as §2

[16] = test system: P. aeruginosa 506/99 (VIM-2); settings: MHB, 5 × 10^5 CFU/mL, 18 h, 35 °C, triplicate
Experimental: as §2

[17] = test system: blood agar plate (Columbia CNA Agar); assay: Hemolysis on blood agar plate; settings: 50 μg spotted on blood agar, 35 ± 2 °C, 24 h
Outline: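 Peptides (50 μg, from 25 mg/mL DMSO solution) spotted on Columbia CNA blood agar, incubated at 35 ± 2 °C for 24 h. Hemolysis zone diameter measured visually, averaged over triplicates. Triton X-100 positive, DMSO negative control.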

| SMILES | MBC Eco (Escherichia coli CCUGT) [µg/mL] | MIC Eco (Escherichia coli CCUGT) [µg/mL] | MBC Efa [1] | MIC Efa [1] [µg/mL] | MBC Kpn [2] [µg/mL] | MIC Kpn [2] [µg/mL] | MBC Aba [3] [µg/mL] | MIC Aba [3] [µg/mL] | MIC against A. baumannii, in molar units [3] [µM] | MIC Bsu [4] [µg/mL] | MBC Sau [5] [µg/mL] | MIC Sau [5] [µg/mL] | MBC Spy [6] [µg/mL] | MIC Spy [6] [µg/mL] | MBC Pae [7] [µg/mL] | MIC Pae [7] [µg/mL] | lowest MIC [8] [µg/mL] | MBC P. aeruginosa VA-182/00 (VIM-2) [9] [µg/mL] | MIC P. aeruginosa VA-182/00 (VIM-2) [9] [µg/mL] | MBC P. aeruginosa VR-143/97 (VIM-1) [10] [µg/mL] | other results |
| --- | --- | --- | --- | --- | --- | --- | --- | --- | --- | --- | --- | --- | --- | --- | --- | --- | --- | --- | --- | --- | --- |
| CCCCCCCC(=O)NC(C)(C)C(=O)NCC(=O)N[C@@H](CC(C)C)C(=O)NC(C)(C)C(=O)N[C@@H](CCCCN)C(=O)N[C@@H](CCCCN)C(=O)N[C@@H](CC(C)C)C(=O)NC(C)(C)C(=O)NCC(=O)N[C@H](C(=O)N[C@H](CO)CC(C)C)[C@@H](C)CC [Peptide 4, 1-Oct-Aib-Gly-Leu-Aib-Lys-Lys-Leu-Aib-Gly-Ile-Lol] | > 16 | 16 (≈ 13.2 µM) | 8 µg/mL and 4 µg/mL | 2 (≈ 1.65 µM) | 32 (≈ 26.5 µM) | 16 (≈ 13.2 µM) | 2 (≈ 1.65 µM) | 2 (≈ 1.65 µM) | 1.8 to 7.2 | 2 (≈ 1.65 µM) | 16 (≈ 13.2 µM) | 16 (≈ 13.2 µM) | 2 (≈ 1.65 µM) | 2 (≈ 1.65 µM) | 16 (≈ 13.2 µM) | 8 (≈ 6.62 µM) | 2 | 32 (≈ 26.5 µM) | 16 (≈ 13.2 µM) | 32 (≈ 26.5 µM) | MIC P. aeruginosa VR-143/97 (VIM-1) [10]: 16 µg/mL (≈ 13.2 µM); MBC S. aureus ATCC 43300 (MRSA) [11]: 8 µg/mL (≈ 6.62 µM); MIC S. aureus ATCC 43300 (MRSA) [11]: 4 µg/mL (≈ 3.31 µM); MBC A. baumannii SI-310 (OXA-24) [12]: 8 µg/mL (≈ 6.62 µM); MIC A. baumannii SI-310 (OXA-24) [12]: 4 µg/mL (≈ 3.31 µM); MBC P. aeruginosa 101/1477 (IMP-1) [13]: 16 µg/mL (≈ 13.2 µM); MIC P. aeruginosa 101/1477 (IMP-1) [13]: 8 µg/mL (≈ 6.62 µM); MBC A. baumannii SI-648 (OXA-23, OXA-51-like) [14]: 4 µg/mL (≈ 3.31 µM); MIC A. baumannii SI-648 (OXA-23, OXA-51-like) [14]: 4 μg/mL and 4/4 μg/mL; MBC A. baumannii SI-12 (OXA-23) [15]: 4 µg/mL (≈ 3.31 µM); MIC A. baumannii SI-12 (OXA-23) [15]: 2 µg/mL (≈ 1.65 µM); MBC P. aeruginosa 506/99 (VIM-2) [16]: 16 µg/mL (≈ 13.2 µM); MIC P. aeruginosa 506/99 (VIM-2) [16]: 16 µg/mL (≈ 13.2 µM); Hemolytic activity (in words) [17]: non-hemolytic |
| CCCCCCCC(=O)NC(C)(C)C(=O)N[C@@H](CCCCN)C(=O)N[C@@H](CC(C)C)C(=O)NC(C)(C)C(=O)N[C@@H](CCCCN)C(=O)N[C@@H](CCCCN)C(=O)N[C@@H](CC(C)C)C(=O)NC(C)(C)C(=O)N[C@@H](CCCCN)C(=O)N[C@H](C(=O)N[C@H](CO)CC(C)C)[C@@H](C)CC [Peptide 7, 1-Oct-Aib-Lys-Leu-Aib-Lys-Lys-Leu-Aib-Lys-Ile-Lol] (Octanoyl-[Aib]KL[Aib]KKL[Aib]KI[Leu(ol)]) | 16 (≈ 11.8 µM) | 16 (≈ 11.8 µM) | 8 µg/mL (≈ 5.92 µM) | 4 (≈ 2.96 µM) | 16 (≈ 11.8 µM) | 16 (≈ 11.8 µM) | 16 (≈ 11.8 µM) | 2 (≈ 1.48 µM) | 1.8 to 7.2 | 2 (≈ 1.48 µM) | 32 (≈ 23.7 µM) | 16 (≈ 11.8 µM) | 8 (≈ 5.92 µM) | 2 (≈ 1.48 µM) | > 16 | 8 (≈ 5.92 µM) | 2 | 8 (≈ 5.92 µM) | 8 (≈ 5.92 µM) | 8 (≈ 5.92 µM) | MBC Bsu [4]: 16 µg/mL (≈ 11.8 µM); MIC range, all tested bacterial strains ([8]; reference panel): 2 to 16 µg/mL; MIC P. aeruginosa VR-143/97 (VIM-1) [10]: 8 µg/mL (≈ 5.92 µM); MBC S. aureus ATCC 43300 (MRSA) [11]: 8 µg/mL (≈ 5.92 µM); MIC S. aureus ATCC 43300 (MRSA) [11]: 4 µg/mL (≈ 2.96 µM); MBC A. baumannii SI-310 (OXA-24) [12]: 4 µg/mL (≈ 2.96 µM); MIC A. baumannii SI-310 (OXA-24) [12]: 4 μg/mL and 4/4 μg/mL; MBC P. aeruginosa 101/1477 (IMP-1) [13]: 8 µg/mL (≈ 5.92 µM); MIC P. aeruginosa 101/1477 (IMP-1) [13]: 8 µg/mL (≈ 5.92 µM); MBC A. baumannii SI-648 (OXA-23, OXA-51-like) [14]: 4 µg/mL (≈ 2.96 µM); MIC A. baumannii SI-648 (OXA-23, OXA-51-like) [14]: 2 µg/mL (≈ 1.48 µM); MBC A. baumannii SI-12 (OXA-23) [15]: 4 µg/mL (≈ 2.96 µM); MIC A. baumannii SI-12 (OXA-23) [15]: 2 µg/mL (≈ 1.48 µM); MBC P. aeruginosa 506/99 (VIM-2) [16]: 8 µg/mL (≈ 5.92 µM); MIC P. aeruginosa 506/99 (VIM-2) [16]: 8 µg/mL (≈ 5.92 µM); Hemolytic activity (in words) [17]: non-hemolytic |
